From patent US11702418B2, “SOS1 inhibitors” (priority 2019, dated 2023)
Counter-ions that a name gives are not always drawn. Like-named read-outs stand apart in the source and are kept apart here.

Key:
[1] = target: recombinant human SOS1 polypeptide (amino acids 560-1049) (Homo sapiens (Human), UniProt Q07889); test: biochemical; format: binding; conditions: read-out: Ki, Inhibition of Labeled Tracer Binding to SOS1
pERK in MKN1 cells = test: cells; format: cell-based; conditions: Homo sapiens
[2] = HTRF displacement, Cy5 labelled tracer, Morrison equation for competitive binding
[3] = MKN-1, pERK inhibition, In-Cell Western, MKN1 or H358 cells (Table 24 does not say which), 0.5-1 hour incubation, read-out: IC50

recombinant human SOS1 polypeptide (amino acids 560-1049), sequence (Q07889 560-1049): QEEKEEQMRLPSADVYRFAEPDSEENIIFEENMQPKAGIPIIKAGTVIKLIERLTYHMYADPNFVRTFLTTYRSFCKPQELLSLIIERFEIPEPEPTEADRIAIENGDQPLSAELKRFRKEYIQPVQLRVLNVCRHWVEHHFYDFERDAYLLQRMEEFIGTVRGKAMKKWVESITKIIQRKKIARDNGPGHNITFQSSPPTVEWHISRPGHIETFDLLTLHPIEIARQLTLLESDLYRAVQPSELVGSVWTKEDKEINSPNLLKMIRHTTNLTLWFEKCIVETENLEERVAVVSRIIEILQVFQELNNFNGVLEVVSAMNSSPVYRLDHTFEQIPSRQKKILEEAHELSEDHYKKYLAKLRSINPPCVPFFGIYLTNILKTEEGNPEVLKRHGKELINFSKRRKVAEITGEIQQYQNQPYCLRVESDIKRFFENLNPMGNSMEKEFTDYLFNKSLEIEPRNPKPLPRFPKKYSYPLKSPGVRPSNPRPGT

## Cc1c([C@@H](C)Nc2nnc(C)c3ccc(N4CCC(N(C)C)C4)cc23)cccc1C(F)(F)F (stereo in doubt) [Example 10-27, 7-((R)-3-(dimethylamino)pyrrolidin-1-yl)-4-methyl-N-((R)-1-(2-methyl-3-(trifluoromethyl)phenyl)ethyl)phthalazin-1-amine hydrochloride salt]
[1]
  Ki: 0.46 nM
pERK in MKN1 cells; MKN-1
  IC50: 154 nM

## COc1c(C#N)cccc1[C@@H](C)Nc1nnc(C)c2cnc(N3CCN4CCOCC4C3)cc12 (stereo in doubt) [Example 17-2, 3-((R)-1-((7-((R)-hexahydropyrazino[2,1-c][1,4]oxazin-8(1H)-yl)-4-methylpyrido[3,4-d]pyridazin-1-yl)amino)ethyl)-2-methoxybenzonitrile]
[1]; [2]
  Ki: 12.5 nM
pERK in MKN1 cells; [3]
  IC50: 50 nM

## CCc1ccc2c(C)nnc(N[C@H](C)c3ccc(-c4ccccc4CNC)s3)c2c1 [8-2, (R)-7-ethyl-4-methyl-N-(1-(5-(2-((methylamino)methyl)phenyl)thiophen-2-yl)ethyl)phthalazin-1-amine]
[1]; [2]
  Ki: 3.74 nM
pERK in MKN1 cells; [3]
  IC50: 605 nM

## Cc1c([C@@H](C)Nc2nncc3ccc(N4CCn5ncnc5C4)cc23)cccc1C(F)(F)F [Example 1-25, (R)-7-(5,6-dihydro-[1,2,4]triazolo[1,5-a]pyrazin-7(8H)-yl)-N-(1-(2-methyl-3-(trifluoromethyl)phenyl)ethyl)phthalazin-1-amine]
[1]; [2]
  Ki: 0.95 nM
pERK in MKN1 cells; [3]
  IC50: 47 nM

## Cc1c([C@@H](C)Nc2nncc3ccc(N4CC(=O)N(C)CC4C)cc23)cccc1C(F)(F)F (stereo partly drawn) [Example 1-26, 1,5-dimethyl-4-(4-(((R)-1-(2-methyl-3-(trifluoromethyl)phenyl)ethyl)amino)phthalazin-6-yl)piperazin-2-one]
[1]; [2]
  Ki: 1.16 nM
pERK in MKN1 cells; [3]
  IC50: 57 nM

## Cc1nc2n(c1C)CCN(c1ccc3cnnc(N[C@H](C)c4cccc(C(F)(F)F)c4C)c3c1)C2 [Example 1-28, (R)-7-(2,3-dimethyl-5,6-dihydroimidazo[1,2-a]pyrazin-7(8H)-yl)-N-(1-(2-methyl-3-(trifluoromethyl)phenyl)ethyl)phthalazin-1-amine]
[1]; [2]
  Ki: 0.17 nM
pERK in MKN1 cells; [3]
  IC50: 61 nM

## Cc1c([C@@H](C)Nc2nncc3ccc(N4CC5(CC(N(C)C)C5)C4)cc23)cccc1C(F)(F)F [Example 1-32, (R)-7-(6-(dimethylamino)-2-azaspiro[3.3]heptan-2-yl)-N-(1-(2-methyl-3-(trifluoromethyl)phenyl)ethyl)phthalazin-1-amine]
[1]; [2]
  Ki: 0.42 nM
pERK in MKN1 cells; [3]
  IC50: 101 nM

## Cc1c([C@@H](C)Nc2nncc3ccc(N4CCC5CCN(C)C5C4)cc23)cccc1C(F)(F)F (stereo partly drawn) [Example 1-33, N-((R)-1-(2-methyl-3-(trifluoromethyl)phenyl)ethyl)-7-(1-methyloctahydro-6H-pyrrolo[2,3-c]pyridin-6-yl)phthalazin-1-amine]
[1]; [2]
  Ki: 0.7 nM
pERK in MKN1 cells; [3]
  IC50: 109 nM

## Cc1c([C@@H](C)Nc2nncc3ccc(N4CCC5C(CCN5C)C4)cc23)cccc1C(F)(F)F (stereo partly drawn) [Example 1-35, N-((R)-1-(2-methyl-3-(trifluoromethyl)phenyl)ethyl)-7-(1-methyloctahydro-5H-pyrrolo[3,2-c]pyridin-5-yl)phthalazin-1-amine]
pERK in MKN1 cells; [3]
  IC50: 123 nM

## Cc1c([C@@H](C)Nc2nncc3ccc(N4CCCC(N(C)C)C4)cc23)cccc1C(F)(F)F (stereo partly drawn) [Example 1-36, 7-(3-(dimethylamino)piperidin-1-yl)-N-((R)-1-(2-methyl-3-(trifluoromethyl)phenyl)ethyl)phthalazin-1-amine]
pERK in MKN1 cells; [3]
  IC50: 125 nM

## Cc1c([C@@H](C)Nc2nncc3ccc(N4CCn5c(cnc5C)C4)cc23)cccc1C(F)(F)F [Example 1-37, (R)-N-(1-(2-methyl-3-(trifluoromethyl)phenyl)ethyl)-7-(3-methyl-5,6-dihydroimidazo[1,5-a]pyrazin-7(8H)-yl)phthalazin-1-amine]
[1]; [2]
  Ki: 0.25 nM
pERK in MKN1 cells; [3]
  IC50: 131 nM

## Cc1c([C@@H](C)Nc2nncc3ccc(N4CCC5(CCN(C)C5)C4)cc23)cccc1C(F)(F)F (stereo partly drawn) [Example 1-39, N-((R)-1-(2-methyl-3-(trifluoromethyl)phenyl)ethyl)-7-(7-methyl-2,7-diazaspiro[4.4]nonan-2-yl)phthalazin-1-amine]
pERK in MKN1 cells; [3]
  IC50: 170 nM

## Cc1c([C@@H](C)Nc2nncc3ccc(N4CCOC5(CCOC5)C4)cc23)cccc1C(F)(F)F (stereo partly drawn) [Example 1-41, N-((R)-1-(2-methyl-3-(trifluoromethyl)phenyl)ethyl)-7-(2,6-dioxa-9-azaspiro[4.5]decan-9-yl)phthalazin-1-amine]
pERK in MKN1 cells; [3]
  IC50: 195 nM

## Cc1c([C@@H](C)Nc2nncc3ccc(N4CCC5C(CCCN5C)C4)cc23)cccc1C(F)(F)F (stereo partly drawn) [Example 1-42, N-((R)-1-(2-methyl-3-(trifluoromethyl)phenyl)ethyl)-7-(1-methyloctahydro-1,6-naphthyridin-6(2H)-yl)phthalazin-1-amine]
pERK in MKN1 cells; [3]
  IC50: 201 nM

## Cc1c([C@@H](C)Nc2nncc3ccc(N4CCn5c(nc6c5CCCC6)C4)cc23)cccc1C(F)(F)F [Example 1-45, (R)-7-(3,4,6,7,8,9-hexahydrobenzo[4,5]imidazo[1,2-a]pyrazin-2(1H)-yl)-N-(1-(2-methyl-3-(trifluoromethyl)phenyl)ethyl)phthalazin-1-amine]
pERK in MKN1 cells; [3]
  IC50: 335 nM

## Cc1c([C@@H](C)Nc2nncc3ccc(N4CCn5c(nc6ccccc65)C4)cc23)cccc1C(F)(F)F [Example 1-46, (R)-7-(3,4-dihydrobenzo[4,5]imidazo[1,2-a]pyrazin-2(1H)-yl)-N-(1-(2-methyl-3-(trifluoromethyl)phenyl)ethyl)phthalazin-1-amine]
pERK in MKN1 cells; [3]
  IC50: 341 nM

## Cc1c([C@@H](C)Nc2nncc3ccc(N4CCCC(N5CCC5)C4)cc23)cccc1C(F)(F)F (stereo partly drawn) [Example 1-49, 7-(3-(azetidin-1-yl)piperidin-1-yl)-N-((R)-1-(2-methyl-3-(trifluoromethyl)phenyl)ethyl)phthalazin-1-amine]
pERK in MKN1 cells; [3]
  IC50: 426 nM

## Cc1c([C@@H](C)Nc2nncc3ccc(N4CCCCC(N(C)C)C4)cc23)cccc1C(F)(F)F (stereo partly drawn) [Example 1-50, 7-(3-(dimethylamino)azepan-1-yl)-N-((R)-1-(2-methyl-3-(trifluoromethyl)phenyl)ethyl)phthalazin-1-amine]
pERK in MKN1 cells; [3]
  IC50: 453 nM

## C[C@@H](Nc1nncc2ccc(N3CCOCC3)cc12)c1cc(-c2ccccc2CN(C)C)cs1 [Example 2-1, (R)—N-(1-(4-(2-((dimethylamino)methyl)phenyl)thiophen-2-yl)ethyl)-7-morpholinophthalazin-1-amine]
pERK in MKN1 cells; [3]
  IC50: 308 nM

## Cc1c([C@@H](C)Nc2nncc3ccc(OC4CCN(C)C4)cc23)cccc1C(F)(F)F (stereo partly drawn) [Example 2-7, N-((R)-1-(2-methyl-3-(trifluoromethyl)phenyl)ethyl)-7-((1-methylpyrrolidin-3-yl)oxy)phthalazin-1-amine]
pERK in MKN1 cells; [3]
  IC50: 142 nM

## COCCN1CCC(Oc2ccc3cnnc(N[C@H](C)c4cccc(C(F)(F)F)c4C)c3c2)CC1 [Example 2-9, (R)-7-((1-(2-methoxyethyl)piperidin-4-yl)oxy)-N-(1-(2-methyl-3-(trifluoromethyl)phenyl)ethyl)phthalazin-1-amine]
pERK in MKN1 cells; [3]
  IC50: 172 nM

## Cc1c([C@@H](C)Nc2nncc3ccc(OC4CC5CCC(C4)N5C)cc23)cccc1C(F)(F)F (stereo partly drawn) [Example 2-10, N-((R)-1-(2-methyl-3-(trifluoromethyl)phenyl)ethyl)-7-((8-methyl-8-azabicyclo[3.2.1]octan-3-yl)oxy)phthalazin-1-amine]
pERK in MKN1 cells; [3]
  IC50: 223 nM

## COc1nnc(N[C@H](C)c2cccc(C(F)(F)F)c2C)c2cc(N3CCNCC3)ccc12 [Example 9-1, (R)-4-methoxy-N-(1-(2-methyl-3-(trifluoromethyl)phenyl)ethyl)-7-(piperazin-1-yl)phthalazin-1-amine]
pERK in MKN1 cells; [3]
  IC50: > 10000 nM

## Cc1c([C@@H](C)Nc2nnc(C)c3ccc(C4CCNCC4)cc23)cccc1C(F)(F)F [Example 10-1, (R)-4-methyl-N-(1-(2-methyl-3-(trifluoromethyl)phenyl)ethyl)-7-(piperidin-4-yl)phthalazin-1-amine]
pERK in MKN1 cells; MKN-1
  IC50: 183 nM

## Cc1cc(C)n(-c2ccc3c(C)nnc(N[C@H](C)c4cccc(C(F)(F)F)c4C)c3c2)n1 [Example 10-14, (R)-7-(3,5-dimethyl-1H-pyrazol-1-yl)-4-methyl-N-(1-(2-methyl-3-(trifluoromethyl)phenyl)ethyl)phthalazin-1-amine]
pERK in MKN1 cells; [3]
  IC50: 1150 nM

## Cc1c([C@@H](C)Nc2nnc(C)c3ccc(-n4ncc5c4CNC5)cc23)cccc1C(F)(F)F [Example 10-15, (R)-7-(5,6-dihydropyrrolo[3,4-c]pyrazol-1(4H)-yl)-4-methyl-N-(1-(2-methyl-3-(trifluoromethyl)phenyl)ethyl)phthalazin-1-amine]
pERK in MKN1 cells; [3]
  IC50: 844 nM

## Cc1c([C@@H](C)Nc2nnc(C)c3ccc(-n4cccn4)cc23)cccc1C(F)(F)F [Example 10-17, (R)-4-methyl-N-(1-(2-methyl-3-(trifluoromethyl)phenyl)ethyl)-7-(1H-pyrazol-1-yl)phthalazin-1-amine]
pERK in MKN1 cells; [3]
  IC50: 2630 nM

## Cc1nnc(N[C@H](C)c2ccc(Cl)cc2Cl)c2cc(N3CCOCC3)ccc12 [Example 10-20, (R)-N-(1-(2,4-dichlorophenyl)ethyl)-4-methyl-7-morpholinophthalazin-1-amine]
pERK in MKN1 cells; [3]
  IC50: 1650 nM

## Cc1nnc(N[C@H](C)c2ccc(Cl)cc2Cl)c2cc(N3CCNCC3)ccc12 [Example 10-21, (R)-N-(1-(2,4-dichlorophenyl)ethyl)-4-methyl-7-(piperazin-1-yl)phthalazin-1-amine]
pERK in MKN1 cells; [3]
  IC50: 444 nM

## Cc1c([C@@H](C)Nc2nnc(C)c3cnc(N4C[C@@H](C)O[C@@H](C)C4)cc23)cccc1C(F)(F)F [Example 12-4]
pERK in MKN1 cells; [3]
  IC50: 370 nM

## Cc1c([C@@H](C)Nc2nnc(C)c3cnc(N4C[C@@H](C)O[C@H](C)C4)cc23)cccc1C(F)(F)F [Example 12-5]
pERK in MKN1 cells; [3]
  IC50: 850 nM

## Cc1c([C@@H](C)Nc2nnc(CN)c3ccc(N4CCOCC4)cc23)cccc1C(F)(F)F [Example 14-2, (R)-4-(aminomethyl)-N-(1-(2-methyl-3-(trifluoromethyl)phenyl)ethyl)-7-morpholinophthalazin-1-amine]
pERK in MKN1 cells; MKN-1, pERK inhibition, In-Cell Western, MKN1 or H358 cells (Table 24 does not say which), 0.5-1 hour incubation
  IC50: 139 nM
